# Experimental data reported in US20230107216A1, “PANTETHEINE DERIVATIVES AND USES THEREOF” (Comet Therapeutics, Inc., priority 2018, published 2023).
# Read-outs that look alike come from different tables or passages of the source.
# Key:
# [1] = test system: Propionic Acidemia (PA) primary fibroblasts GM00371; assay: Mitochondrial respiration, XFe96 Extracellular Flux Analyzer (OCR/ECAR), PA fibroblasts GM00371; assay type: cell-based; settings: Homo sapiens, Fibroblast, 50 μM, read-out: Increase in Maximal Respiratory Capacity AUC
# [2] = test system: Methylmalonic Acidemia (MMA) primary fibroblasts GM01673; assay: Mitochondrial respiration, XFe96 Extracellular Flux Analyzer (OCR/ECAR), MMA fibroblasts GM01673; assay type: cell-based; settings: Homo sapiens, Fibroblast
# Description: The effect of the compounds of the present disclosure on mitochondrial respiration was measured with a XFe96 Extracellular Flux Analyzer (Seahorse Bioscience, Agilent Technologies) and Oxygen consumption Rate (OCR) and Extracellular acidification rate (ECAR) determined.
# Cell culture and treatments. Primary adherent fibroblasts were cultured in minimum essential medium (MEM) (Gibco, 25030081) supplemented with 2 mM L-Glutamine (Gibco, 25030081), 15% fetal bovine serum (FBS) (Gibco, 26400044) and 1% penicillin/streptomycin (Gibco, 5140122) at 37° C. and 5% CO2. Cells were collected for either passaging or experiment at ˜70-80% confluence. Cells were obtained by trypsinization and seeded at 20000 cells/well in cell culture microplates (Seahorse Bioscience, 101085-004) and allowed to adhere for 16 hours in culture media.
# By profiling different primary cells and/or optimizing their culture media or environmental components one can select cell lines and/or conditions that are appropriate for the biological or disease model. In the present example, 24 hours prior to OCR and ECAR profiling, media was changed to Dulbecco's Modified Eagle Medium (DMEM, Agilent Seahorse 103575-100) with the appropriate supplements for the different primary cells (10 mM glucose, 2 mM L-glutamine, 1 mM pyruvate, 10% FBS; 1 mM glucose, 2 mM L-glutamine, 1 mM pyruvate, 10% FBS; 10 mM glucose, 10% FBS; 5 mM glucose 10% FBS; 1 mM glucose 10% FBS). Cells used in this example were: Propionic Acidemia (PA) (GM00371, GM03590 Coriell Institute for Medical Research, Tsi 6337, Tsi 4626, Tsi 3618 Trans-Hit Bio), Methylmalonic Acidemia (MMA) (GM01673, Coriell Institute for Medical Research, Tsi 5224 Trans-Hit Bio), Branched chain ketoacid dehydrogenase kinase (BCKDK) (GM00612, GM00649 Coriell Institute for Medical Research), Subnormal activation of pyruvate dehydrogenase complex (PDH) (GM01503 Coriell Institute for Medical Research), Very long-chain acyl-CoA dehydrogenase (VLCAD) (GM17475), Leigh Syndrome (LS) (GM03672, GM13411 Coriell Institute for Medical Research), Pyruvate Carboxylase Deficiency (PC) (GM00444 Coriell Institute for Medical Research), Glutaric Acidemia-I (GA) (GM10653), Friedreich's Ataxia (FXN) (GM04078 Coriell Institute for Medical Research, Huntington's disease (HD) (GM21756 Coriell Institute for Medical Research), Ornithine Transcarbamylase Deficiency (OTC) (GM12756 Coriell Institute for Medical Research), Kearns-Sayre Syndrome (KSS) (GM06225 Coriell Institute for Medical Research).
# One hour before the assay, the cells were washed with freshly prepared unbuffered serum free-Seahorse XF Assay medium (Seahorse Bioscience, North America, USA, 103575-100) with the same supplements as for the previous 24 hour incubation.
# After baseline measurements of OCR, cells were challenged with compounds of the present disclosure at different concentrations (10 to 50 μM) or vehicle (DMSO, 0.1%) and a post-compound baseline was recorded. OCR was measured after sequentially adding to each well 1 μg/ml oligomycin (inhibitor of ATP synthase Sigma-Aldrich, 753531), then maximal OCR was determined with carbonyl cyanide 4-(trifluoromethoxy) phenylhydrazone (FCCP, Sigma-Aldrich, C2920), (uncoupler of oxidative phosphorylation) and 0.5 μM of rotenone (Sigma-Aldrich, R8875) plus antimycin A (Sigma-Aldrich, A8674) (inhibitors of mitochondrial complex I and III) for determination of rotenone-antimycin insensitive respiration together with Hoechst for nuclear staining in situ when normalized to cell counts. After the analysis and nuclear staining, the XFp microplate was transferred to the Cytation 5, and the nuclear images were captured, the individual nuclei were identified and counted by BioTek Gen5 software. Data were expressed as pmol of O2 per minute and normalized by nuclear staining and baselined to pre-compound addition.
# Assay conditions were as stated below.
# Assay specifics on assay conditions are indicated below when readouts were normalized to cell counts. […]
# [3] = test system: primary fibroblasts (healthy controls and PA, MMA, BCKDK, PDH, VLCAD, LS, PC, GA, VLCFA, KSS, FXN, HD); assay: Measurement of ROS (H2DCFDA) in primary fibroblasts; assay type: cell-based, human; settings: Homo sapiens, Fibroblast, PC GM00444, procedure Example 812, Assay Condition C
# Summary of the method: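 Patient and healthy-control primary fibroblasts switched to supplemented DMEM 24 h before assay, then treated with compound (10 μM) plus H2DCFDA (22 μM) for 2 h (PA, MMA lines) or 24 h (other lines). Kinetic fluorescence at 492/527 nm over 60 min; only live cells analysed.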
# [4] = test system: Peripheral blood mononuclear cells co-cultured with B-cells (BT system); assay: cells; settings: Homo sapiens, 72 h, read-out: % increase in sIL-6
# [5] = test system: Bronchial epithelial cells (BE3C system); assay: BioMAP BE3C system (IL-1β, TNFα, IFNγ); assay type: cell-based, human; settings: Homo sapiens, Epithelial cell, 24 h; 10 uM; procedure of Example 831; read-out: % decrease in MMP-1
# [6] = test system: Venular Endothelial cells (HUVEC) (4H system); assay: BioMAP 4H system (IL-4 and histamine); assay type: cell-based, human; settings: Homo sapiens, HUVEC, 24 h; 1 uM; procedure of Example 826; read-out: % decrease in E-Selectin
# HepG2 cells = assay: Glucose uptake (Glucose Uptake-Glo); assay type: cell-based; settings: Homo sapiens, 50 uM, read-out: % increase in Glucose Uptake
# [7] = test system: Peripheral blood mononuclear cells co-cultured with B-cells (BT system)
# [8] = test system: Dermal fibroblasts (HDF3CGF system); assay: BioMAP HDF3CGF system (IL-1β, TNFα, IFNγ, EGF, bFGF, PDGF-BB); assay type: cell-based, human; settings: 10 uM
# [9] = test system: primary culture of rat embryo mesencephalic cells (microglia, astrocytes and neurons) exposed to LPS; assay: Neuroprotective effect on damage induced by LPS on culture of mesencephalic neurons (NO, TNF-α, IL-1β, TH positive neurons); assay type: cell-based; settings: 50 uM, after 5 days of LPS exposure; for inhibition at 50 µM: Rattus norvegicus, Neuron, 120 h, read-out: % reversion of TH positive neurons
# Description: Drug preparation. […] The stock solutions will be prepared 1000× the concentration in 100% DMSO. The final concentration of the vehicle (DMSO) is set at 0.1%.
# Test animals. Pregnant Wistar rats (Janvier; France) are used for the study. They are group-housed and maintained in a room with controlled temperature (21-22° C.) and a reversed light-dark cycle (12h/12h; lights on: 17:30-05:30; lights off: 05:30-17:30) with food and water available ad libitum.
# The protocol is performed in 3 independent cultures. For each culture, each condition is performed in sextuplicate.
# Female rat of 15 days gestation is killed by cervical dislocation. Fetuses are removed from the uterus and their brains are harvested and placed in ice-cold medium (Leibovitz's L15 medium, Gibco). Only ventral mesencephalic flexure is used for the cell preparations. The midbrain is dissociated by trypsinization. The reaction is stopped, and the suspension is triturated and centrifuged. The pellet of dissociated cells is resuspended in culture medium consisted of DMEM-F12 (Gibco), containing 10% FBS (ATCC), 10% Horse serum (Gibco) and 2 mM L-glutamine (Gibco). Viable cells are counted and seeded on 96-well plates, precoated with poly-L-lysine. Cells are maintained in a humidified incubator at 37° C. in 5% CO2-95% air atmosphere. Half of the medium is changed on day 2 and day 5.
# Treatment. On day 7, culture media are removed and replaced by new medium consisting of DMEM-F12 (Gibco) supplemented with 2% FBS (ATCC), 2% Horse serum (Gibco) and 2 mM L-glutamine (Gibco) and containing vehicle or test substances. After 1-hour exposure, LPS at 10 ng/ml is added and exposure further continued for 24 hours or 5 days period.
# Inflammatory response measurement and neuronal death evaluation. NO production is measured in the media 24h and 5 days after LPS exposure using the Griess reagent kit (Molecular Probes). The Griess reagent Assay is a colorimetric reaction assay which measures the conversion of a sulfanilic salt into an azo dye product by nitrite. Visible wavelength absorbance data is collected using a 96-well plate reader at 570 nm (Multiskan EX, Thermo Fisher, France). IL-1β and TNF-α release are measured in the media 24h after LPS exposure using the ELISA development kit (PeproTech). The ELISA plate, previously coated with anti-IL-1β or anti-TNF-αantibody at 1 μg/ml, is incubated 1h with PBS containing 1% of BSA (bovine serum albumin). After washing four times with PBS containing 0.05% of Tween-20, the plate is successively incubated 2h with supernatant, 2h with biotinylated antibody at 0.5 μg/ml in PBS containing 0.1% of BSA and 0.05% of Tween-20, 45 min with Avidin-HRP conjugated at 1/2000 and 30 min with color ABTS substrate (Sigma). Visible wavelength absorbance data is collected using a 96-well plate reader at 405 nm with wavelength correction set at 650 nm (Multiskan EX, Thermo Fisher, France).
# Immunodetection of tyrosine hydroxylase positive neurons. On day 12 (5 days after LPS exposure), cultures are fixed 30 min at 4° C. with paraformaldehyde in PBS (4%, Sigma). Then, cells are successively permeabilized with 0.1% Triton X100 for 30 min, saturated with PBS containing 3% of BSA (bovine serum albumin) and are incubated 2h with anti-tyrosine hydroxylase antibody (Sigma, 1:10000; clone TH-2) at 1/10 000 in PBS containing 0.5% of BSA. Cells are washed three times with PBS containing 0.5% of BSA, and they are incubated 1h with goat anti mouse antibody coupled with AF488 (Invitrogen A11001) diluted at 1/1000 in PBS containing 0.5% of BSA. Finally, nuclei are stained with DAPI at 1/1000 in PBS containing 0.5% of BSA. After rinsing with PBS, the plate is visualized and examined with Cell Insight HCS (Thermo Scientific) to determine the number of tyrosine hydroxylase positive cells per well.
# Statistical Analysis. The drug-induced effect on NO and cytokines is calculated by setting the response of the LPS-stimulated control as 100%. […]
# [10] = test system: Bronchial epithelial cells co-cultured with dermal fibroblast (BF4T system); assay: BioMAP BF4T system (TNFα and IL-4); assay type: cell-based, human; settings: Homo sapiens, 24 h; 10 uM; procedure of Example 830; read-out: % increase in VCAM-1
# [11] = test system: Peripheral blood mononuclear cells co-cultured with venular endothelial cells (HUVEC) (LPS system); assay: BioMAP LPS system; assay type: cell-based, human; settings: Homo sapiens, HUVEC, 24 h, procedure of Example 827
# [12] = assay condition A (10 mM glucose, 2 mM L-glutamine, 1 mM pyruvate, 10% FBS), read-out: Increase in Maximal Respiratory Capacity AUC
structure (smiles),measurement,setting,value
"CC(C)(CO)[C@@H](O)C(=O)NCCC(=O)NCCSC(=O)CC[C@H](N)C(=O)O [Compound 385, (S)-2-amino-5-((2-(3-((R)-2,4-dihydroxy-3,3-dimethylbutanamido)propanamido)ethyl)thio)-5-oxopentanoic acid]",activation at 50 µM,"[1]; assay condition D (1 mM glucose, 10% FBS)",≥ 10%
same,activation at 10 µM,"[2]; assay condition A (10 mM glucose, 2 mM L-glutamine, 1 mM pyruvate, 10% FBS), read-out: Increase in Spare Capacity AUC",≥ 10%
same,inhibition at 10 µM,[3]; read-out: Decreased ROS by at least 10%,≥ 10%
same,inhibition at 10 µM,[3]; read-out: Decreased ROS by at least 30%,≥ 30%
COC(=O)CC(SCCNC(=O)CCNC(=O)[C@H](O)C(C)(C)COC(=O)CN)C(=O)OC (stereo partly shown) [Compound 172],activation at 50 µM,"[1]; assay condition A (10 mM glucose, 2 mM L-glutamine, 1 mM pyruvate, 10% FBS)",≥ 10%
same,activation at 10 µM,[2]; [12],≥ 10%
same,activation at 10 µM,"[2]; assay condition D (1 mM glucose, 10% FBS), read-out: Increase in Maximal Respiratory Capacity AUC",≥ 10%
CC(C)(CO)[C@@H](O)C(=O)NCCC(=O)NCCSC(=O)CC(=O)N[C@@H](CCCCN)C(=O)O [Compound 485],activation at 50 µM,[2]; [12],≥ 10%
"CC(=O)CC(=O)SCCNC(=O)CCNC(=O)[C@H](O)C(C)(C)COC(=O)O[C@H](CC(=O)[O-])C[N+](C)(C)C [Compound 185, (3R,9R)-9-hydroxy-8,8-dimethyl-5,10,14,19,21-pentaoxo-3-((trimethylammonio)methyl)-4,6-dioxa-18-thia-11,15-diazadocosanoate]",activation at 50 µM,"[1]; assay condition C (10 mM glucose, 10% FBS)",≥ 10%
same,activation at 1 µM,[4],≥ 10%
same,inhibition at 10 µM,[5],≥ 10%
same,inhibition at 1 µM,[6],≥ 10%
same,activation at 50 µM,HepG2 cells,≥ 30%
same,% increase in B-cell Proliferation,"[7]; 1 uM, procedure of Example 829",≥10%
same,% increase in PBMC cytotoxicity,"[7]; human, 72 h, 1 µM",≥10%
same,% increase in SRB,[8],≥10%
same,activation at 10 µM,"[8]; Homo sapiens, Fibroblast, 72 h, read-out: % increase in 72 Hour Proliferation",≥ 10%
same,% decrease in NO release relative to LPS alone,[9],≥20%
same,inhibition at 50 µM,[9]; list at threshold 15%,≥ 15%
same,inhibition at 50 µM,[9]; list at threshold 50%,≥ 50%
same,activation at 10 µM,[10],≥ 10%
same,inhibition at 1 µM,"[11]; 1 uM, read-out: % decrease in sPGE2",≥ 10%
same,inhibition at 10 µM,"[11]; 10 uM, read-out: % decrease in IL-1α",≥ 10%
same,activation at 10 µM,"[11]; 10 uM, read-out: % increase in sTNFα",≥ 10%
CC(=O)N[C@@H](CC(=O)CC(=O)SCCNC(=O)CCNC(=O)[C@H](O)C(C)(C)CO)C(=O)O [Compound 447],activation at 50 µM,[2]; [12],≥ 10%
